# Laboratory results published in patent publication US6569877B2, “Therapeutic and prophylactic agents for neoplasms” (Sankyo Company, Limited, priority 1999, dated 2003).
# How the values were obtained:
# [1] = test system: Human H69 lung cancer cells; test: Antitumor effect on human H69 lung cancer cells (subcutaneous xenograft in nude mice); format: in vivo; settings: H69 in BALB/c nude mice; 10 mg/kg orally once a day, 24 times; tumor volume on the 39th day after inoculation
# Source text: A piece (5 mm×5 mm) of human lung affected by H69 strain of lung cancer was subcutaneously inoculated in a group of 10 BALB/c nude mice (female, 6 weeks old). The test compounds were suspended in 5% emulsified saline containing 2.5% dimethylacetamide. They were orally administered once a day for 24 times in total, i.e., from the first day after the inoculation to the 4th day, from the 7th to the 11th day, from the 14th to the 18th day and from the 21st to the 25th day and from the 28th to the 32nd day after inoculation.
# The short diameter (mm) and the long diameter (mm) of the tumor were measured with an electronic digital caliper square on the 39th day after inoculation. The efficacy of the test compound was evaluated by calculation of the inhibitory growth rate of the tumor (GI %) according to the following equation: […]
# A: average tumor volume on the 39th day after inoculation in the group treated with the test compound (*)
# B: an average tumor volume on the 39th day after inoculation in the non-treated group (*)
# *: The tumor volume indicates ½×(long diameter of the tumor)×(short diameter of the tumor)^2.
# [2] = test system: Human MKN-74 stomach cancer cells; test: Antitumor effects on human MKN-74 stomach cancer cells (subcutaneous xenograft in nude mice); format: in vivo
# Source text: A piece (5 mm×5 mm) of human stomach affected by MKN-74 strain of stomach cancer was subcutaneously inoculated in a group of 10 BALB/c nude mice (female, 6 weeks old). The test compounds were suspended in 5% emulsified saline containing 2.5% dimethylacetamide. They were orally administered once a day for 24 times in total, i.e., from the first day after inoculation to the 4th day, from the 7th to the 11th day, from the 14th to the 18th day, from the 21st to the 25th day and from the 28th to the 32nd day after the inoculation.
# The short diameter (mm) and the long diameter (mm) of the tumor were measured with an electronic digital caliper square on the 35th day after inoculation. The efficacy of the test compound was evaluated by calculation of the inhibitory growth rate of the tumor (GI %) in a similar to those described above in Test Example 2.
# [3] = test system: Human large intestine cancer cells COL-2-JCK; test: Antitumor effects upon human large intestine cancer cells COL-2-JCK (colony formation, crystal violet staining); format: cell-based; settings: 300 cells/well, 10 days incubation, control (0) 3311
# Experimental: Human cancer cells from the large intestine, COL-2-JCK (moderately differentiated adenocarcinoma), purchased from the Central Institute for Experimental Animals, were employed in the Test Example of the present invention as the solid tumor strain. The proliferated CLO-2-JCK cells were cultured and used for the experiments in our laboratory. In order to subculture the strain of the cancer cells and to test compounds in the experiments, the cancer cells were cultured with D-MEM/F-12 culture medium containing bovine fetal serum (manufactured by GIBCO Co.).
# The test was carried out as follows: COL-2-JCK cells growed confluently on a petri dish for culture of cells (inner diameter 100 mm) were removed from the petri dish by using EDTA and 0.05% trypsin solution, and diluted to 100 cells/ml cell density with the culture medium. 3 ml of the diluted cell solution was then placed into each well of a 6-well plate (300 cells/well). At the same time, the test compound dissolved in DMSO solution was added so as to be 1, 10, 100 nM, 1 and 10 μM of the final concentrations to each well. The final concentration of the DMSO solution was adjusted to 0.1%. DMSO solution (0.1%) alone was placed in wells of the control group. After addition of the test compound, the cells were incubated in the presence of 5% CO2 gas for 10 days at 37° C. After incubation was terminated, each well containing the cells was washed once with Dulbecco phosphate buffer saline (bivalent ion minus). Then 1 ml of 10% neutral formalin solution containing 0.02% crystal violet was added to the well and left for 5 minutes in order to stain the cells. After the dye was fixed, the cells were washed with water and air-dried. The total colony area (mm^2) of dye-fixed tumor cells was calculated by using an image analyzer of PCA-11 (manufactured by SystemSience Co.).
structure (smiles),measurement,setting,value
"COc1ccc2nc(COc3ccc(CC4SC(=O)NC4=O)cc3)n(C)c2c1.Cl (centres unmarked) [Example 1, 5-[4-(6-Methoxy-1-methyl-1H-benzimidazol-2-ylmethoxy)benzyl]thiazolidine-2,4-dione hydrochloride]",GI (%) inhibitory growth rate of the tumor,[1],57%
same,GI (%) inhibitory growth rate of the tumor,"[2]; MKN-74 in BALB/c nude mice, 10 mg/kg orally once a day, 24 times, tumor volume on the 35th day after inoculation",76%
same,suppression of proliferation of human stomach cancer cells (in words),[2]; as shown by Test Example 3,suppressed the proliferation of human stomach cancer cells to a remarkable extent
same,Total colony area (mm^2) of tumor cells,[3]; final concentration of the test compound 1 nM,2795 mm^2
same,Total colony area (mm^2) of tumor cells,[3]; final concentration of the test compound 10 nM,2018 mm^2
same,Total colony area (mm^2) of tumor cells,[3]; final concentration of the test compound 100 nM,1352 mm^2
same,Total colony area (mm^2) of tumor cells,[3]; final concentration of the test compound 1 μM,933 mm^2
same,Total colony area (mm^2) of tumor cells,[3]; final concentration of the test compound 10 μM,768 mm^2
